In the NIST ThermoML archive (doi:10.1016/j.tca.2013.08.002):
± gives the expanded uncertainty stated by the source.

Assay: mn = molality of the nth substance listed, in mol/kg
Conditions: 101 kPa, Liquid; for speed of sound: Frequency=1.999 MHz, Sing-around technique in a fixed-path interferometer; for mass density: Vibrating tube method

Compound: C[N+](C)(C)CC(=O)[O-] [(trimethylammonio)acetate] + O
- speed of sound (288.15 K, m1 = 0.0482): 1471.1 ± 10 m/s
- speed of sound (288.15 K, m1 = 0.1063): 1477.4 ± 10 m/s
- speed of sound (288.15 K, m1 = 0.5027): 1517.6 ± 10 m/s
- speed of sound (288.15 K, m1 = 1.002): 1562.8 ± 10 m/s
- speed of sound (288.15 K, m1 = 1.504): 1599.7 ± 10 m/s
- speed of sound (288.15 K, m1 = 2.005): 1628.1 ± 10 m/s
- speed of sound (288.15 K, m1 = 2.519): 1648.9 ± 10 m/s
- speed of sound (288.15 K, m1 = 3.008): 1658.3 ± 10 m/s
- mass density (288.15 K, m1 = 0.0482): 1000.1 ± 2 kg/m3
- mass density (288.15 K, m1 = 0.1063): 1001.2 ± 2 kg/m3
- mass density (288.15 K, m1 = 0.5027): 1008.5 ± 2 kg/m3
- mass density (288.15 K, m1 = 1.002): 1016.8 ± 2 kg/m3
- mass density (288.15 K, m1 = 1.504): 1024.3 ± 2 kg/m3
- mass density (288.15 K, m1 = 2.005): 1030.9 ± 2 kg/m3
- mass density (288.15 K, m1 = 2.519): 1036.6 ± 2 kg/m3
- mass density (288.15 K, m1 = 3.008): 1041.8 ± 2 kg/m3
- speed of sound (293.15 K, m1 = 0.0482): 1487.7 ± 10 m/s
- speed of sound (293.15 K, m1 = 0.1063): 1493.8 ± 10 m/s
- speed of sound (293.15 K, m1 = 0.5027): 1535.4 ± 10 m/s
- speed of sound (293.15 K, m1 = 1.002): 1580.7 ± 10 m/s
- speed of sound (293.15 K, m1 = 1.504): 1619.5 ± 10 m/s
- speed of sound (293.15 K, m1 = 2.005): 1649.8 ± 10 m/s
- speed of sound (293.15 K, m1 = 2.519): 1670.4 ± 10 m/s
- speed of sound (293.15 K, m1 = 3.008): 1680.1 ± 10 m/s
- mass density (293.15 K, m1 = 0.0482): 999.1 ± 2 kg/m3
- mass density (293.15 K, m1 = 0.1063): 1000.2 ± 2 kg/m3
- mass density (293.15 K, m1 = 0.5027): 1007.2 ± 2 kg/m3
- mass density (293.15 K, m1 = 1.002): 1015.1 ± 2 kg/m3
- mass density (293.15 K, m1 = 1.504): 1022.1 ± 2 kg/m3
- mass density (293.15 K, m1 = 2.005): 1028.1 ± 2 kg/m3
- mass density (293.15 K, m1 = 2.519): 1033.6 ± 2 kg/m3
- mass density (293.15 K, m1 = 3.008): 1038.5 ± 2 kg/m3
- speed of sound (298.15 K, m1 = 0.0482): 1501.6 ± 10 m/s
- speed of sound (298.15 K, m1 = 0.1063): 1507.6 ± 10 m/s
- speed of sound (298.15 K, m1 = 0.5027): 1547.2 ± 10 m/s
- speed of sound (298.15 K, m1 = 1.002): 1593.1 ± 10 m/s
- speed of sound (298.15 K, m1 = 1.504): 1630 ± 10 m/s
- speed of sound (298.15 K, m1 = 2.005): 1656.8 ± 10 m/s
- speed of sound (298.15 K, m1 = 2.519): 1674.5 ± 10 m/s
- speed of sound (298.15 K, m1 = 3.008): 1698.9 ± 10 m/s
- mass density (298.15 K, m1 = 0.0482): 997.9 ± 2 kg/m3
- mass density (298.15 K, m1 = 0.1063): 998.9 ± 2 kg/m3
- mass density (298.15 K, m1 = 0.5027): 1005.6 ± 2 kg/m3
- mass density (298.15 K, m1 = 1.002): 1013.1 ± 2 kg/m3
- mass density (298.15 K, m1 = 1.504): 1019.9 ± 2 kg/m3
- mass density (298.15 K, m1 = 2.005): 1025.8 ± 2 kg/m3
- mass density (298.15 K, m1 = 2.519): 1031 ± 2 kg/m3
- mass density (298.15 K, m1 = 3.008): 1035.4 ± 2 kg/m3
- speed of sound (303.15 K, m1 = 0.0482): 1514.1 ± 10 m/s
- speed of sound (303.15 K, m1 = 0.1063): 1520 ± 10 m/s
- speed of sound (303.15 K, m1 = 0.5027): 1558.6 ± 10 m/s
- speed of sound (303.15 K, m1 = 1.002): 1602.3 ± 10 m/s
- speed of sound (303.15 K, m1 = 1.504): 1639.6 ± 10 m/s
- speed of sound (303.15 K, m1 = 2.005): 1669.8 ± 10 m/s
- speed of sound (303.15 K, m1 = 2.519): 1689.7 ± 10 m/s
- speed of sound (303.15 K, m1 = 3.008): 1715.2 ± 10 m/s
- mass density (303.15 K, m1 = 0.0482): 996.6 ± 2 kg/m3
- mass density (303.15 K, m1 = 0.1063): 997.6 ± 2 kg/m3
- mass density (303.15 K, m1 = 0.5027): 1004.2 ± 2 kg/m3
- mass density (303.15 K, m1 = 1.002): 1011.6 ± 2 kg/m3
- mass density (303.15 K, m1 = 1.504): 1018 ± 2 kg/m3
- mass density (303.15 K, m1 = 2.005): 1023.5 ± 2 kg/m3
- mass density (303.15 K, m1 = 2.519): 1028.4 ± 2 kg/m3
- mass density (303.15 K, m1 = 3.008): 1032.8 ± 2 kg/m3
- speed of sound (308.15 K, m1 = 0.0482): 1524.2 ± 10 m/s
- speed of sound (308.15 K, m1 = 0.1063): 1529.9 ± 10 m/s
- speed of sound (308.15 K, m1 = 0.5027): 1567.5 ± 10 m/s
- speed of sound (308.15 K, m1 = 1.002): 1610.2 ± 10 m/s
- speed of sound (308.15 K, m1 = 1.504): 1648.1 ± 10 m/s
- speed of sound (308.15 K, m1 = 2.005): 1679.8 ± 10 m/s
- speed of sound (308.15 K, m1 = 2.519): 1700 ± 10 m/s
- speed of sound (308.15 K, m1 = 3.008): 1726.5 ± 10 m/s
- mass density (308.15 K, m1 = 0.0482): 994.9 ± 2 kg/m3
- mass density (308.15 K, m1 = 0.1063): 995.9 ± 2 kg/m3
- mass density (308.15 K, m1 = 0.5027): 1002.5 ± 2 kg/m3
- mass density (308.15 K, m1 = 1.002): 1009.9 ± 2 kg/m3
- mass density (308.15 K, m1 = 1.504): 1016.4 ± 2 kg/m3
- mass density (308.15 K, m1 = 2.005): 1022 ± 2 kg/m3
- mass density (308.15 K, m1 = 2.519): 1027.1 ± 2 kg/m3
- mass density (308.15 K, m1 = 3.008): 1031.2 ± 2 kg/m3
- speed of sound (313.15 K, m1 = 0.0482): 1533.4 ± 10 m/s
- speed of sound (313.15 K, m1 = 0.1063): 1538.8 ± 10 m/s
- speed of sound (313.15 K, m1 = 0.5027): 1574.2 ± 10 m/s
- speed of sound (313.15 K, m1 = 1.002): 1615.7 ± 10 m/s
- speed of sound (313.15 K, m1 = 1.504): 1652.3 ± 10 m/s
- speed of sound (313.15 K, m1 = 2.005): 1682.8 ± 10 m/s
- speed of sound (313.15 K, m1 = 2.519): 1705.9 ± 10 m/s
- speed of sound (313.15 K, m1 = 3.008): 1737.1 ± 10 m/s
- mass density (313.15 K, m1 = 0.0482): 993.1 ± 2 kg/m3
- mass density (313.15 K, m1 = 0.1063): 994.1 ± 2 kg/m3
- mass density (313.15 K, m1 = 0.5027): 1000.7 ± 2 kg/m3
- mass density (313.15 K, m1 = 1.002): 1007.9 ± 2 kg/m3
- mass density (313.15 K, m1 = 1.504): 1014.4 ± 2 kg/m3
- mass density (313.15 K, m1 = 2.005): 1019.9 ± 2 kg/m3
- mass density (313.15 K, m1 = 2.519): 1025 ± 2 kg/m3
- mass density (313.15 K, m1 = 3.008): 1029.1 ± 2 kg/m3
- speed of sound (318.15 K, m1 = 0.0482): 1540.8 ± 10 m/s
- speed of sound (318.15 K, m1 = 0.1063): 1546 ± 10 m/s
- speed of sound (318.15 K, m1 = 0.5027): 1580.3 ± 10 m/s
- speed of sound (318.15 K, m1 = 1.002): 1620.9 ± 10 m/s
- speed of sound (318.15 K, m1 = 1.504): 1656.7 ± 10 m/s
- speed of sound (318.15 K, m1 = 2.005): 1688.3 ± 10 m/s
- speed of sound (318.15 K, m1 = 2.519): 1713.8 ± 10 m/s
- speed of sound (318.15 K, m1 = 3.008): 1743.7 ± 10 m/s
- mass density (318.15 K, m1 = 0.0482): 991.1 ± 2 kg/m3
- mass density (318.15 K, m1 = 0.1063): 992.1 ± 2 kg/m3
- mass density (318.15 K, m1 = 0.5027): 998.7 ± 2 kg/m3
- mass density (318.15 K, m1 = 1.002): 1006 ± 2 kg/m3
- mass density (318.15 K, m1 = 1.504): 1012.4 ± 2 kg/m3
- mass density (318.15 K, m1 = 2.005): 1018 ± 2 kg/m3
- mass density (318.15 K, m1 = 2.519): 1022.8 ± 2 kg/m3
- mass density (318.15 K, m1 = 3.008): 1027.3 ± 2 kg/m3
